The text below walks through data of patent publication US20230322789A1, “PYRAZOLOPYRIDAZINONE COMPOUND, AND PHARMACEUTICAL COMPOSITION AND USE THEREOF” (BroadenBio Co., Ltd., priority 2020, published 2023).

Counter-ions that a name gives are not always drawn.

One test addresses HPK1 (Homo sapiens (Human), UniProt Q92918). In words: HPK1 kinase activity inhibition test (ADP-Glo, luminescence). It is filed as biochemical. To be noted: HPK1 5 nM, ATP 2 μM, read-out: IC50, inhibitory effects of compounds on HPK1 kinase activity. Summed up: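 HPK1 autophosphorylation was run without added substrate. Kinase and compound were preincubated 10 min at 25° C., then ATP was added for 60 min at 25° C. ADP formed was detected by ADP-Glo luminescence, and IC50 was taken from a four-parameter nonlinear fit.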
In general terms: In ADP-Glo the light output rises with the ADP produced.

In the next test the test system is Human Jurkat-E6-1 cells. In words: Measurement of IL-2 secretion of Jurkat cells by ELISA. Particulars: Homo sapiens, Jurkat E6.1, anti-CD3/anti-CD28 stimulation 24 hours, read-out: Percentage of the amount of IL-2 secreted from compound treated/DMSO-treated cells; for activity at 3 µM: test compound 3.0 μM; for activity at 1 µM: test compound 1.0 μM. It is filed as cell-based. Summed up:
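Jurkat-E6-1 cells pre-incubated with compound for 30 min at 37° C, then stimulated 24 h with plate-bound anti-CD3 plus soluble anti-CD28. Secreted IL-2 in medium quantified by sandwich ELISA against a standard curve; expressed as percent of DMSO-treated cells.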
Background: ELISA stands for enzyme-linked immunosorbent assay.

Chain of HPK1 (Q92918 whole entry): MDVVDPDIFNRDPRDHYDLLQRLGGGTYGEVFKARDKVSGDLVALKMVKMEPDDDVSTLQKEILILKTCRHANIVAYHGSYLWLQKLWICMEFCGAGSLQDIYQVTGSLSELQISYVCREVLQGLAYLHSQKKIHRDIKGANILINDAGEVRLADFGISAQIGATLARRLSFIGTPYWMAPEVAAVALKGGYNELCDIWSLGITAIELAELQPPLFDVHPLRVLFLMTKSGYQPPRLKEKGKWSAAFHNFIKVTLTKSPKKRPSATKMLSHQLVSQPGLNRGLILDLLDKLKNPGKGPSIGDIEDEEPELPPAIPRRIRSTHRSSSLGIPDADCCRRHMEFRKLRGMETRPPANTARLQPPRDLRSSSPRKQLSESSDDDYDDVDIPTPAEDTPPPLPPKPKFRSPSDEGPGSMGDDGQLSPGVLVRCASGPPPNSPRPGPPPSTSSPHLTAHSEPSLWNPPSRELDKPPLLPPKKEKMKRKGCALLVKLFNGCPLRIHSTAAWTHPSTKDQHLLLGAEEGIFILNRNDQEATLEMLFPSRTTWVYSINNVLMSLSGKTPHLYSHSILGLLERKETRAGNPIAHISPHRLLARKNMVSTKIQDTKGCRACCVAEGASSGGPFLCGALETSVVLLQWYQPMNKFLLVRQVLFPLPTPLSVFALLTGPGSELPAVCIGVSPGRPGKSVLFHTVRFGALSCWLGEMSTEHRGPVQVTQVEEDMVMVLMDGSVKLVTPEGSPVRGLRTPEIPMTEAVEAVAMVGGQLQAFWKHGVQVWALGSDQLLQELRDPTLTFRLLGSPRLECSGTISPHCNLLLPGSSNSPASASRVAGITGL

As a reminder, the IC50 is the concentration that inhibits the measured activity by half. Take `COc1cccc(F)c1-n1nc2c(-c3ccc(N4CCC(N5CCOCC5)CC4)cc3)n[nH]c2cc1=O` [Compound 144, 5-(2-fluoro-6-methoxyphenyl)-3-(4-(4-morpholinopiperidin-1-yl)phenyl)-1H-pyrazolo[4,3-c]pyridazin-6(5H)-one]: the IC50 at HPK1 is no more than 50 nM. Moreover, the activity at 3 µM in the test with Human Jurkat-E6-1 cells was found to be 716%.
In the same order, the values of `COc1cccc(F)c1-n1nc2c(-c3cnn(C)c3)n[nH]c2cc1=O` [Compound 21, 5-(2-fluoro-6-methoxyphenyl)-3-(1-methyl-1H-pyrazol-4-yl)-1H-pyrazolo[4,3-c]pyridazin-6(5H)-one] are 50 to 500 nM and 258%.
Regarding `COc1cccc(F)c1-n1nc2c(-c3ccc(N4CCN(C)C(=O)C4)cc3)n[nH]c2cc1=O` [Compound 33, 5-(2-fluoro-6-methoxyphenyl)-3-(4-(4-methyl-3-oxo-piperazin-1-yl)phenyl)-1H-pyrazolo [4,3-c]pyridazin-6(5H)-one], on HPK1, the IC50 was no more than 50 nM. The activity at 1 µM with Human Jurkat-E6-1 cells came out at 631%.
As for `CCc1cccc(F)c1-n1nc2c(-c3ccc(N4CCN(C)CC4)cc3)n[nH]c2cc1=O` [Compound 8, 5-(2-ethyl-6-fluorophenyl)-3-(4-(4-methylpiperazin-1-yl)phenyl)-1H-pyrazolo[4,3-c]pyridazin-6(5H)-one], the IC50 at HPK1 was no more than 50 nM. Further, the activity at 0.33 µM with Human Jurkat-E6-1 cells (test compound 0.33 μM) stood at 306%.
For `COc1cc(-c2n[nH]c3cc(=O)n(-c4c(C)cccc4F)nc23)ccc1N1CCN(C)CC1` [Compound 14, 5-(2-fluoro-6-methylphenyl)-3-(3-methoxy-4-(4-methylpiperazin-1-yl)phenyl)-1H-pyrazolo[4,3-c]pyridazin-6(5H)-one], the IC50 at HPK1 lay within 50 to 500 nM. Moreover, in the test on Human Jurkat-E6-1 cells, the activity at 3 µM worked out at 255%.
As to `Cc1cc(C#N)cc(F)c1-n1nc2c(-c3ccc4c(c3)CN(C)CC4)n[nH]c2cc1=O` [Compound 170, 3-fluoro-5-methyl-4-(3-(2-methyl-1,2,3,4-tetrahydroisoquinolin-7-yl)-6-oxo-1H-pyrazolo[4,3-c]pyridazin-5(6H)-yl)benzonitrile], at HPK1, the IC50 is no more than 50 nM. The activity at 1 µM in the test with Human Jurkat-E6-1 cells came to 279%.
The matching figures for `COc1cccc(F)c1-n1nc2c(-c3cc(N4CCN(C)CC4)ccc3F)n[nH]c2cc1=O` [Compound 210, 3-(2-fluoro-5-(4-methylpiperazin-1-yl)phenyl)-5-(2-fluoro-6-methoxyphenyl)-1H-pyrazolo[4,3-c]pyridazin-6(5H)-one]: no more than 50 nM and 298%.
With `Cc1cccc(F)c1-n1nc2c(-c3ccc4c(c3)CN(C)CC4)n[nH]c2cc1=O` [Compound 156, 5-(2-fluoro-6-methylphenyl)-3-(2-methyl-1,2,3,4-tetrahydroisoquinolin-7-yl)-1H-pyrazolo[4,3-c]pyridazin-6(5H)-one], at HPK1, the IC50 was no more than 50 nM. Also, the activity at 3 µM with Human Jurkat-E6-1 cells is 849%.
The matching figures for `Cc1cccc(F)c1-n1nc2c(-c3ccc(N4CCn5ccnc5C4)cc3)n[nH]c2cc1=O` [Compound 137, 3-(4-(5,6-dihydroimidazolo[1,2-a]pyrazin-7(8H)-yl)phenyl)-5-(2-fluoro-6-methylphenyl)-1H-pyrazolo[4,3-c]pyridazin-6(5H)-one]: no more than 50 nM and 291%.
In the same order, the values of `Cc1cccc(F)c1-n1nc2c(-c3ccc(N4CCN(CCO)CC4)nc3)n[nH]c2cc1=O` [Compound 118, 5-(2-fluoro-6-methylphenyl)-3-(6-(4-(2-hydroxyethyl)piperazin-1-yl)pyrid-3-yl)-1H-pyrazolo[4,3-c]pyridazin-6(5H)-one] are no more than 50 nM and 550%.
For `Cc1cccc(F)c1-n1nc2c(-c3ccc4c(c3)CNCC4)n[nH]c2cc1=O` [Compound 161, 5-(2-fluoro-6-methylphenyl)-3-(1,2,3,4-tetrahydroisoquinolin-7-yl)-1H-pyrazolo[4,3-c]pyridazin-6(5H)-one hydrochloride], the IC50 on HPK1 was no more than 50 nM. In addition, the activity at 3 µM in the test on Human Jurkat-E6-1 cells came to 393%.
In the same order, the values of `Cc1cccc(F)c1-n1nc2c(-c3cccc(N4CCN(C)CC4)c3)n[nH]c2cc1=O` [Compound 198, 5-(2-fluoro-6-methylphenyl)-3-(3-(4-methylpiperazin-1-yl)phenyl)-1H-pyrazolo[4,3-c]pyridazin-6(5H)-one] are no more than 50 nM and 280%.
In the same order, the values of `Cc1cccc(F)c1-n1nc2c(-c3ccc4c(c3)CN(C3CNC3)CC4)n[nH]c2cc1=O` [Compound 164, 3-(2-(azetidin-3-yl)-1,2,3,4-tetrahydroisoquinolin-7-yl)-5-(2-fluoro-6-methylphenyl)-1H-pyrazolo[4,3-c]pyridazin-6(5H)-one hydrochloride] are 50 to 500 nM and 159%.
In the same order, the values of `Cc1cccc(F)c1-n1nc2c(-c3ccc(OCC4CNCCN4)cc3)n[nH]c2cc1=O` (stereo not drawn) [Compound 93, 5-(2-fluoro-6-methylphenyl)-3-(4-(piperazin-2-ylmethoxy)phenyl)-1H-pyrazolo[4,3-c]pyridazin-6(5H)-one] are no more than 50 nM and 210%.
As to `COc1cc(C#N)cc(F)c1-n1nc2c(-c3ccc(N4CCN(C)CC4)cc3)n[nH]c2cc1=O` [Compound 74, 3-fluoro-5-methoxy-4-(3-(4-(4-methylpiperazin-1-yl)phenyl)-6-oxo-1H-pyrazolo[4,3-c]pyridazin-5(6H)-yl)benzonitrile], the 50% inhibitory concentration (IC50) at HPK1 was no more than 50 nM. In the test with Human Jurkat-E6-1 cells, the activity at 3 µM was 411%.
In the case of `COc1cccc(F)c1-n1nc2c(-c3cccc(N4CCN(C)CC4)c3)n[nH]c2cc1=O` [Compound 199, 5-(2-fluoro-6-methoxyphenyl)-3-(3-(4-methylpiperazin-1-yl)phenyl)-1H-pyrazolo[4,3-c]pyridazin-6(5H)-one], on HPK1, the IC50 was no more than 50 nM. Moreover, the activity at 1 µM with Human Jurkat-E6-1 cells came out at 328%.
In the case of `Cc1cccc(F)c1-n1nc2c(-c3ccc4c(c3)CCN(C3CNC3)C4)n[nH]c2cc1=O` [Compound 193], the IC50 at HPK1 was no more than 50 nM. The activity at 3 µM with Human Jurkat-E6-1 cells was found to be 169%.
The matching figures for `COc1cc(C#N)cc(F)c1-n1nc2c(-c3ccc4c(c3)CN(C)CC4)n[nH]c2cc1=O` [Compound 159, 3-fluoro-5-methoxy-4-(3-(2-methyl-1,2,3,4-tetrahydroisoquinolin-7-yl)-6-oxo-1H-pyrazolo[4,3-c]pyridazin-5(6H)-yl)benzonitrile]: no more than 50 nM and 454%.
Take `Cc1cccc(F)c1-n1nc2c(-c3ccc(N4CCN(C5CC5)CC4)cc3)n[nH]c2cc1=O` [Compound 58, 3-(4-(4-cyclopropylpiperazin-1-yl)phenyl)-5-(2-fluoro-6-methylphenyl)-1H-pyrazolo[4,3-c]pyridazin-6(5H)-one]: the IC50 at HPK1 lay in the range of 50 to 500 nM. For the same molecule, in the test on Human Jurkat-E6-1 cells, the activity at 3 µM came to 233%.
With `COc1cccc(F)c1-n1nc2c(-c3cccc(N4CC5CCC(C4)N5C)c3)n[nH]c2cc1=O` [Compound 202, 5-(2-fluoro-6-methoxyphenyl)-3-(3-(8-methyl-3,8-diazabicyclo[3.2.1]octan-3-yl)phenyl)-1H-pyrazolo[4,3-c]pyridazin-6(5H)-one], the IC50 at HPK1 was no more than 50 nM. The activity at 1 µM in the test on Human Jurkat-E6-1 cells came out at 539%.
Turning to `COc1cccc(F)c1-n1nc2c(-c3ccc(N4CCN(C)C(C(C)(C)O)C4)cc3)n[nH]c2cc1=O` (stereo not drawn) [Compound 126], the IC50 at HPK1 was no more than 50 nM. Besides, the activity at 3 µM in the test with Human Jurkat-E6-1 cells is 428%.
`COc1cc(C#N)cc(F)c1-n1nc2c(-c3ccc(N4CCN(CCO)CC4)cc3)n[nH]c2cc1=O` [Compound 114, 3-fluoro-4-(3-(4-(4-(2-hydroxyethyl)piperazin-1-yl)phenyl)-6-oxo-1H-pyrazolo[4,3-c]pyridazin-5(6H)-yl)-5-methoxybenzonitrile]: the IC50 on HPK1 is no more than 50 nM. Besides, the activity at 3 µM in the test with Human Jurkat-E6-1 cells is 309%.
The matching figures for `Cc1cccc(F)c1-n1nc2c(-c3ccc(N4CCN(C)C(C)(C)C4)cc3)n[nH]c2cc1=O` [Compound 89, 5-(2-fluoro-6-methylphenyl)-3-(4-(3,3,4-trimethylpiperazin-1-yl)phenyl)-1H-pyrazolo[4,3-c]pyridazin-6(5H)-one]: no more than 50 nM and 689%.
The matching figures for `Cc1cccc(F)c1-n1nc2c(-c3ccc(N4CCN(C)C(CO)C4)nc3)n[nH]c2cc1=O` (stereo not drawn) [Compound 128, 5-(2-fluoro-6-methylphenyl)-3-(6-(3-(hydroxymethyl)-4-methylpiperazin-1-yl)pyrid-3-yl)-1H-pyrazolo[4,3-c]pyridazin-6(5H)-one]: no more than 50 nM and 472%.
In the same order, the values of `Cc1cc(C#N)cc(F)c1-n1nc2c(-c3ccc(N4CCN(C(=O)C(C)O)CC4)cc3)n[nH]c2cc1=O` (stereo not drawn) [Compound 83] are no more than 50 nM and 252%.
On to `Cc1cccc(F)c1-n1nc2c(-c3ccc(N4CCN(C)CC4)nc3)n[nH]c2cc1=O` [Compound 11, 5-(2-fluoro-6-methylphenyl)-3-(6-(4-methylpiperazin-1-yl)pyrid-3-yl)-1H-pyrazolo[4,3-c]pyridazin-6(5H)-one], for which the IC50 at HPK1 is 50 to 500 nM. In addition, in the test with Human Jurkat-E6-1 cells, the activity at 1 µM is 296%.
As to `Cc1cccc(F)c1-n1nc2c(-c3ccc(N4CC5CCC(C4)N5CCO)cc3)n[nH]c2cc1=O` [Compound 117, 5-(2-fluoro-6-methylphenyl)-3-(4-(8-(2-hydroxyethyl)-3,8-diazabicyclo[3.2.1]octan-3-yl)phenyl)-1H-pyrazolo[4,3-c]pyridazin-6(5H)-one], the IC50 on HPK1 was no more than 50 nM. Besides, in the test with Human Jurkat-E6-1 cells, the activity at 3 µM came out at 566%.
